Laboratory results as given in US4778785A, “Pharmaceutical composition for retarding and reducing cachexia” (Kaken Pharmaceutical Co., Ltd., priority 1985, dated 1988).
Where two headings read alike, the source gives them in different places.

Legend:
[1] = prior chemotherapy of the patient of Clinical Example 1, adverse reactions; conditions: chemotherapy with mitomycin, 5-fluorouracil and cytarabine together, stopped after three weeks
Source text: (§1) Chemotherapy was tried to administering mitomycin, 5-fluorouracil and cytarabine. […] For these reasons, chemotherapy was stopped after three weeks.

[2] = human, in vivo
Source text: as §1

[3] = Clinical Example 3: treatment of cachexia patient with benzaldehyde; type: in vivo, human; conditions: for Precipitation of Blood: before dosage 78; for Glutamic Acid Pyruvic Acid Transaminase (GPT): before dosage 98; for Glutamic Acid Oxaloacetic Acid Transaminase (GOT): before dosage 120; for α-fetoprotein (AFP): before dosage 20,000
Source text: Patient
Diagnosis: Symptoms of cachexia due to lung cancer (the type of cancerous tissue not being specified)
Through CT scan and echo examinations, a total of four tumors were observed, one having the dimensions of 7 cm×7 cm and each of the other three metastasized tumors having a diameter of about 1 cm. Severe symptoms due to cachexia were found.
First Day: The symptoms due to cachexia were growing worse.

[4] = Japanese Patent Laid-Open 108027/1977 and 70428/1979; cited from earlier work
[5] = finding of effectiveness in retarding and reducing cachexia; type: in vivo; conditions: benzaldehyde and/or 4,6-O-benzylidene-D-glucose
[6] = acute toxicity (LD50) by subcutaneous injection of rats; conditions: rat, in vivo, sc
rats = assay: as above; conditions: acute toxicity, rats, subcutaneous injection
in vivo = conditions: rat, sc
[7] = Clinical Example 1: treatment of cachexia patient with 4,6-O-benzylidene-D-glucose; type: in vivo, human; conditions: 1,200 mg i.v. once a day; for body weight: before: 29 kg
Source text: Patient
Diagnosis: Cancer in right ovary, Cachexia caused by metastasis of cancer to peritoneum and liver
Although the adbomen of the patient was opened by an abdominal operation, it was impossible to remove the diseased portions and thus the abdomen was closed without extracting the affected portions. The patient could eat very little and thus was supplied with nutritive substances by instillations every day. The body weight of the patient decreased to 29 kg, and they were confined to bed.

[8] = 25 mg tablets, 5 tablets 4 times a day, three months

Which adverse reactions [1] does the source give for Nc1ccn([C@@H]2O[C@H](CO)[C@@H](O)[C@@H]2O)c(=O)n1 [cytarabine] here?
Its adverse reactions is “intensive adverse reactions, such as anorexia, nausea and Leukopenia”.

And the cachexia under chemotherapy [1]?
Its cachexia under chemotherapy is “the cachexia grew worse and worse”.

What does the source list for CO[C@@]12[C@H](COC(N)=O)C3=C(C(=O)C(C)=C(N)C3=O)N1C[C@@H]1N[C@@H]12 [mitomycin]?
adverse reactions [1]: intensive adverse reactions, such as anorexia, nausea and Leukopenia; cachexia under chemotherapy [1]: the cachexia grew worse and worse

With O=c1[nH]cc(F)c(=O)[nH]1 [5-fluorouracil] as the molecule, how does the adverse reactions [2] read?
Its adverse reactions is “intensive adverse reactions, such as anorexia, nausea and Leukopenia”.

And the cachexia under chemotherapy [1]?
Its cachexia under chemotherapy is “the cachexia grew worse and worse”.

For O=Cc1ccccc1 [Benzaldehyde], which appetite ([3]; 25 mg benzaldehyde tablets, 5 tablets 4 times a day, one month) is on record?
Its appetite is “the patient recovered their appetite”.

And the “values of AFP, GOT and GPT” value ([3]; 25 mg tablets, 5 tablets 4 times a day, monthly)?
The value was “lowered favorably every month unitl they reached normal levels”.

What about the “body weight” value [3, 8] of the same molecule?
The value was “began to increase”.

What about the “symptoms due to cachexia” value [3, 8] of the same molecule?
The value was “Almost all of the symptoms due to cachexia disappeared”.

And the body weight ([3]; one month dosage, before dosage 46)?
The body weight was 46 kg.

And the “Precipitation of Blood” value ([3]; one month dosage)?
The value was 60.

What about the “Glutamic Acid Pyruvic Acid Transaminase (GPT)” value ([3]; one month dosage) of the same molecule?
Its value is 70.

And the “Glutamic Acid Oxaloacetic Acid Transaminase (GOT)” value ([3]; one month dosage)?
Its value is 87.

What about the “α-fetoprotein (AFP)” value ([3]; one month dosage) of the same molecule?
The value was 15,000 ng/ml.

What about the body weight ([3]; three month dosage, before dosage 46) of the same molecule?
The body weight was 47 kg.

What about the “Precipitation of Blood” value ([3]; three month dosage) of the same molecule?
Its value is 40.

What about the “Glutamic Acid Pyruvic Acid Transaminase (GPT)” value ([3]; three month dosage) of the same molecule?
Its value is 35.

And the “Glutamic Acid Oxaloacetic Acid Transaminase (GOT)” value ([3]; three month dosage)?
The value was 38.

And the “α-fetoprotein (AFP)” value ([3]; three month dosage)?
The value was 2,200 ng/ml.

What about the body weight ([3]; two month dosage, before dosage 46) of the same molecule?
Its body weight is 46 kg.

What about the “Precipitation of Blood” value ([3]; two month dosage) of the same molecule?
The value was 48.

What about the “Glutamic Acid Pyruvic Acid Transaminase (GPT)” value ([3]; two month dosage) of the same molecule?
The value was 40.

What about the “Glutamic Acid Oxaloacetic Acid Transaminase (GOT)” value ([3]; two month dosage) of the same molecule?
The value was 72.

And the “α-fetoprotein (AFP)” value ([3]; two month dosage)?
The value was 7,700 ng/ml.

And the carcinostatic function [4]?
Its carcinostatic function is “exhibit carcinostatic functions”.

And the effect on cachexia [5]?
Its effect on cachexia is “effective in retarding and reducing cachexia”.

What about the LD50 [6] of the same molecule?
The LD50 was 5000 mg/kg.

And the “toxicity” value (rats)?
The value was “extremely low toxicities”.

With OC1O[C@@H]2COC(c3ccccc3)O[C@H]2[C@H](O)[C@H]1O (stereo partly drawn) [4,6-O-Benzylidene-D-glucose, 4,6-O-benzylidene-D-glucose] as the molecule, how does the LD50 (in vivo) read?
The LD50 was 4000 mg/kg.

And the nausea ([7]; eighth day)?
The nausea was “Nausea disappeared”.

What about the food intake ([7]; eighth day, before: could eat very little) of the same molecule?
The food intake was “the patient could take meals”.

What about the body weight ([7]; eighty-fifth day) of the same molecule?
The body weight was 35 kg.

And the “cancer in other portions” value ([7]; fifty-sixth day)?
Its value is “No change was observed”.

And the “cancer of the liver (left)” value ([7]; fifty-sixth day)?
Its value is “slightly reduced”.

What about the capability of work ([7]; fifty-sixth day) of the same molecule?
The capability of work was “capable of doing light work”.

What about the symptoms of cachexia ([7]; fifty-sixth day) of the same molecule?
Its symptoms of cachexia is “disappeared completely”.

And the body weight ([7]; fifty-sixth day)?
The body weight was 31 kg.

What about the mobility ([7]; nineteenth day, before: confined to bed) of the same molecule?
Its mobility is “The patient could sit up in bed”.

What about the cachexia symptoms ([7]; thirtieth day) of the same molecule?
Its cachexia symptoms is “cachexia symptoms were alleviated”.

And the mobility ([7]; thirtieth day)?
Its mobility is “the patient could walk”.

What about the “dimensions of the tumor” value ([7]; thirtieth day, CT scan) of the same molecule?
The value was “the dimensions of the tumor had not been reduced”.

And the carcinostatic function [4]?
Its carcinostatic function is “exhibit carcinostatic functions”.

And the effect on cachexia [5]?
Its effect on cachexia is “effective in retarding and reducing cachexia”.

And the “toxicity” value (rats)?
The value was “extremely low toxicities”.
